Test results reported in patent EP0691985B1, “[…]” (MERRELL PHARMACEUTICALS INC., priority 1993, dated 1994).

Assays:
[1] = system: Endothelin Converting Enzyme (ECE); conditions: read-out: IC50 (concentration inhibiting 50% of the effect of pro-ETl 10^-6M); rat striatum slices; pro-ET-l 10^-6M; [3H]-IPl accumulation; determined graphically
Source text: In vitro Endothelin Converting Enzyme (ECE) assay via IPl formation in rat brain slices. This assay measures the enzymatic activity responsible for the generation of functional ET-l from pro-ET-l by measuring the stimulation of phosphatidyl inositol turnover as a marker of ET-l effects:
The precursor of ET-l, i.e., proendothelin-l (pro-ET-l), is unable to stimulate the phosphatidyl inositol turnover unless it is cleaved by a specific phosphoramidon sensitive protease, i.e., endothelin converting enzyme (ECE). […] For this assay, an adaptation of the procedure of Brown et al., J. Neurochem., 42:1379, 1984, was used.
The exact concentration of these solutions was checked by absorbance spectrophotometry at 280 nm, using the equation C = A / L ε280 [formula] (with C the concentration of the peptide in solution, A the absorbance measured, L the optical path length of the solution and ε280 the extinction coefficient of the peptide in solution (8370 and 7025 M^-1cm^-1 for pro-ET-l and ET-l, respectively)]. The stock solutions were then aliquoted, lyophilized and stored at -20°C. The peptides were redissolved and diluted in water on the day of the experiment (peptides for other tests also prepared by this method ). […]
In these conditions the stimulation of phosphatidyl inositol turnover by pro-ET-l can be assessed by measuring the amount of accumulated [^3H]-IPl.

ET receptors = assay: Effect of ET-l on phosphatidyl inositol turnover (IPl formation) in rat brain slices, counter-test; type: cell-based; conditions: rat striatum slices, ETl 10^-6M
Method: The buffer was changed every 15 minutes.

For CC(C)C[C@H](NP(=O)(O)O[C@@H]1O[C@@H](C)[C@H](O)[C@@H](O)[C@H]1O)C(=O)N[C@@H](Cc1c[nH]c2ccccc12)C(=O)O [phosphoramidon], the IC50 [1] was 6.4 ± 1.1 µM, the IC50 (ET receptors; [3H]-IPl accumulation, determined graphically, read-out: RC50 (concentration reducing 50% of the effect of ETl 10^-6M)) was > 30 µM and the “% of maximal reduction observed” value (ET receptors; recorded when RC50 >30 µM (up to 3 × 10^-5M)) was 75 ± 9%.
